Results on seven compounds are retold here after patent US20240383869A1, “ARYLACETYL INHIBITORS OF TG2 AND USES THEREOF” (UNIVERSITY OF OTTAWA, priority 2021, published 2024).

Where two headings read alike, the source gives them in different places. Where a SMILES comes first, the peptide text is derived from it. [ ]: non-standard residue; d: D form. The star is where a group is joined. DON = [N-]=[N+]=CC(=O)CC[C@H](N)C(=O)O; Cbz = O=C(OCc1ccccc1)*

For experiment [1], the target named is T1, hTG2 (Homo sapiens, UniProt P21980).
T1 sequence (P21980 1-687): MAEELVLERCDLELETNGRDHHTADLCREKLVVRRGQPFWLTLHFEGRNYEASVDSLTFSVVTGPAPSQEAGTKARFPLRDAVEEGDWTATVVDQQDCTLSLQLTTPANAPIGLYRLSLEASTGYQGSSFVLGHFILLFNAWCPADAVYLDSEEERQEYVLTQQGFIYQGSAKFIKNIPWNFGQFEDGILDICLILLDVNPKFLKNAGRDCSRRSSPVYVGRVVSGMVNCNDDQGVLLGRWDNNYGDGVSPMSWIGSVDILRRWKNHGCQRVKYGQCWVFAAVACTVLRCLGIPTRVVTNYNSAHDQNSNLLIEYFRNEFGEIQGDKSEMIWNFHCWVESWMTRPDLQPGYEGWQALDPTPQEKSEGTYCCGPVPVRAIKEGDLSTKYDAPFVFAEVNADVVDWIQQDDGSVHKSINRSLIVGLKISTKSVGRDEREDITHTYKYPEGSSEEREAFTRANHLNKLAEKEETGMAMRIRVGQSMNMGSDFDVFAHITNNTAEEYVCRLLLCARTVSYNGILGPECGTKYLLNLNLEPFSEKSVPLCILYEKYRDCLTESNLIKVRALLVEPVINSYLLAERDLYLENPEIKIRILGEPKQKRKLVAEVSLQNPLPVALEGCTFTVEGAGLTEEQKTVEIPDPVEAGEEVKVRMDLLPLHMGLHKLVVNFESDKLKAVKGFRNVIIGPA
As to the kind of experiment: In vitro GTP binding assay (BODIPY GTP-γ-S fluorescence). The following applies: inhibitor 2×KI, 30 minutes at 25° C.; 3 μM BODIPY GTP-γ-S. Here is the method:
Previously we proposed a mechanism of action for the NC9, VA4 and AA9 inhibitors based on their ability to react covalently with the open conformation of TG2, locking the enzyme in that conformation and thereby abolishing the enzyme's ability to bind GTP and act as a G-protein. […] We used the same in vitro GTP binding assay to measure the ability of representative phenylacetyl inhibitors 67 and 72 to abolish GTP binding, as follows:
In vitro GTP binding assay. GTP binding was measured using a method similar to that reported previously (McEwen, D. P. et al., “Fluorescent BODIPY-GTP analogs: Real-time measurement of nucleotide binding to G proteins.” Anal. Biochem. 2001, 291 (1), 109-117). […] The buffer was then exchanged to 100 mM MOPS (pH=7.0), 1 mM EGTA and 5 mM MgCl2 to remove calcium via dialysis using a 10-kDa molecular weight cut off membrane. The fluorescent GTP analog was added to give a final concentration of 3.0 μM and fluorescence was measured on a microplate reader after 10 minutes of incubation (Ex/Em: 490/520 nm).

The target of experiment [2] is T1, hTG2. Nature of the experiment: biochemical. Conditions: fit to saturation kinetics model, 25° C., pH 6.95, 100 μM AL5; for Ki: read-out: KI (converted); for kinact: read-out: kinact (converted); for kinact/KI: read-out: kinact/KI (converted). Here is the method: The ability of the compounds to inhibit TG2 transamidase activity and the kinetics of TG2 inhibition were investigated using a colorimetric activity assay, as follows:
Colorimetric transamidase activity assay. The activities of hTG1, hTG2 and hTG6 were measured via a colorimetric assay using the chromogenic substrate Cbz-Glu(γ-p-nitrophenyl ester)Gly (AL5), as described (Leblanc, A. et al., “Kinetic studies of guinea pig liver transglutaminase reveal a general-base-catalyzed deacylation mechanism.” Biochemistry 2001, 40 (28), 8335-8342). Assays were conducted at 25° C. in 50 mM MOPS buffer (pH 6.95) containing 7.5 mM CaCl2. […] The substrate AL5 was prepared in as a stock solution in DMSO such that the final concentration of this co-solvent was constant at 2.5% v/v. Stock solutions of the inhibitors were made in water ranging in concentration from 100-500 μM. The reaction was initiated with the addition of enzyme, 0.10 μM hTG1, 0.25 μM hTG2 (4.6 mU/mL) or 0.32 μM hTG6. Formation of hydrolysis product, p-nitrophenolate (pNP), was monitored at 405 nm in a polystyrene 96-well microplate using a BioTek Synergy 4 plate reader. The observed first-order rate constants of inactivation (kobs) were determined via non-linear regression fit to a mono-exponential model (Eqn 1) of absorbance versus time curves. These rate constants (kobs) were in turn fit to a saturation kinetics model (Eqn 2), by non-linear regression, providing the kinetic parameters kinact and KI, as previously described by Stone and Hofsteenge (Stone, S. R. and Hofsteenge, J., “Specificity of activated human protein C.” Biochem. J. 1985, 230 (2), 497-502). […] Experiments were completed in triplicate at minimum.
Fitting of this time-dependent inactivation to a monoexponential equation gave first-order rate constants, kobs. […] In some cases, the kinetic data were fitted to a linear double reciprocal equation.

In experiment [3] the test system is SCC-13 cells. As to the kind of experiment: ECS cell invasion through Matrigel (Transwell). Type of experiment: cell-based. The following applies: 0-100 μM inhibitor, 18 h, read-out: EC50 for inhibition of ECS invasion. Here is the method: One well-known property of tumour-initiating cells associated with cancer metastasis is the enhanced ability to invade Matrigel (collagen). For example, it has been shown that epidermal cancer stem (ECS) cells invade Matrigel more efficiently than non-stem cancer cells, and that these properties are associated with enhanced tumour formation (Adhikary, G. et al., PLoS ONE 2013, 8, e84324. https://doi.org/10.1371/journal.pone.0084324). We have shown previously that ˜20 μM of NC9 and 3.9 μM of VA4 can reduce ECS cell invasion through Matrigel by ˜50% relative to vehicle-treated cells (Akbar, A. et al., J. Med. Chem. 2017, 60, 7910-7927. https://doi.org/10.1021/acs.jmedchem.7b01070; Fisher, M. L. et al., Oncotarget 2015, 6, 20525-20539. https://doi.org/10.18632/oncotarget.3890).
Materials and Methods for cell invasion data. To measure cell invasion, Matrigel (Corning, catalogue no. 354234) was diluted to 250 μg/mL and 120 μL was added to the upper chambers of a Transwell plate (Corning, no. 353097, 1-cm diameter, 8-μm pore size) and allowed to solidify. SCC-13 cells were suspended in spheroid medium (Fisher, M. L. et al., Cancer Res. 2016, 76, 7265-7275. https://doi.org/10.1158/0008-5472.can-16-2032; Adhikary, G. et al., Carcinogenesis 2015, 36, 800-810. https://doi.org/10.1093/carcin/bgv064) containing 1% foetal calf serum (FCS), and 20,000 cells were plated into each upper chamber atop the Matrigel. The bottom chamber contained spheroid medium supplemented with 10% FCS and 0-100 μM of inhibitor. After incubation for 18 h in a 37° C. incubator, cells in the top chamber were removed with a swab and cells on the lower surface of the membrane were fixed with 4% paraformaldehyde and the nuclei were stained with 4′,6-diamidino-2-phenylindole. Cell number was counted in multiple fields (n=4) using a fluorescence microscope, normalized with respect to the number counted in the presence of vehicle only, and expressed as mean±standard deviation.

The test system of experiment [4] is SCC-13 cells. The following applies: shown previously; read-out: concentration reducing ECS cell invasion through Matrigel by ~50% relative to vehicle-treated cells; cited from earlier work.
Experiment [5] relates to TG2 relative to other human transglutaminases. The following applies: shown previously (Akbar et al. 2017); cited from earlier work.
For experiment [6], the target named is T1, hTG2. Conditions: shown previously; cited from earlier work.
Experiment [7] concerns glioblastoma multiforme (GBM) cell lines. The following applies: Zhang et al. 2013; cited from earlier work.

Turning to `C=CC(=O)NCCCC[C@H](NC(=O)Cc1ccccc1)C(=O)N1CCN(C(=O)c2cccc3ccccc23)CC1` [Inhibitor 67, (S)-N-(6-(4-(1-naphthoyl)piperazin-1-yl)-6-oxo-5-(2-phenylacetamido)hexyl)acrylamide], in experiment [1], the “inhibition of GTP binding of hTG2” value is given as “abolished the GTP binding ability”.
Turning to `C=CC(=O)NCCCC[C@H](NC(=O)Cc1ccccc1Cl)C(=O)N1CCN(C(=O)c2cccc3ccccc23)CC1` [Inhibitor 76, (S)-N-(6-(4-(1-naphthoyl)piperazin-1-yl)-5-(2-(2-chlorophenyl)acetamido)-6-oxohexyl)acrylamide], in experiment [2], the Ki (usually the equilibrium dissociation constant of an inhibitor or competing ligand from its target) is 18 ± 6.9 µM, the kinact (usually the maximal first-order rate at which the target is inactivated) is 0.0883 s⁻¹ and the kinact/KI is 4920 M⁻¹ s⁻¹. The EC50 in experiment [3] amounted to 92 ± 2 µM.
The like results for `C=CC(=O)NCCCC[C@H](NC(=O)Cc1ccccc1Br)C(=O)N1CCN(C(=O)c2cccc3ccccc23)CC1` [Inhibitor 77, (S)-N-(6-(4-(1-naphthoyl)piperazin-1-yl)-5-(2-(2-bromophenyl)acetamido)-6-oxohexyl)acrylamide] were, in that order, 9.8 ± 1.5 µM, 0.0517 s⁻¹, 5170 M⁻¹ s⁻¹ and 94 ± 2 µM.
Regarding `C=CC(=O)NCCCC[C@H](NC(=O)OCc1ccccc1)C(=O)NCCOCCOCCNS(=O)(=O)c1cccc2c(N(C)C)cccc12` [NC9], the EC50 in experiment [4] is approximately 20 µM. Besides, the “selectivity for TG2 compared to the other major transglutaminase isozymes” value in experiment [5] is “good selectivity for TG2”.
`C=CC(=O)NCCCC[C@H](NC(=O)OCc1ccccc1)C(=O)N1CCN(S(=O)(=O)c2cccc3c(N(C)C)cccc23)CC1` [VA4]: the EC50 in experiment [4] is 3.9 µM. Besides, in experiment [6], the “suppression of TG2 binding of GTP-γ-S-FL BODIPY” value is “suppress the ability of TG2 to bind GTP-γ-S-FL BODIPY”. Moreover, the “selectivity for TG2 compared to the other major transglutaminase isozymes” value in experiment [5] is given as “good selectivity for TG2”.
Turning to `COC(=O)[C@H](CC(C)C)NC(=O)[C@@H]1CCCN1C(=O)[C@@H](NC(=O)[C@H](CCC(=O)C=[N+]=[N-])NC(=O)OCc1ccccc1)C(C)C` [Z-DON] (Cbz-[DON]VPL-OMe), in experiment [7], the “proliferation of GBM cell lines” value is recorded as “reduce proliferation in two out of three”.
`CN(C)c1cccc2c(S(=O)(=O)NCCCCCN)cccc12` [monodansylcadaverine]: in experiment [7], the “proliferation of GBM cell lines” value is “reduce proliferation in two out of three”.
